Consider eleven molecules from ChEMBL document CHEMBL1201862, “PubChem BioAssay data set” (2004).

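How tested: cells in 96-well plates exposed to compound for 48 hours at five concentrations. GI50: concentration for 50% inhibition of growth.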 Activity calls are given as the source filed them. Cut-off read from the data, not from the text of the source: active = GI50 up to about 1.1 µM and inactive = higher.

What all share (assay): NCI tumour cell line growth inhibition, 48 h
The test system of assay [1] is COLO 205.
Assay [2] deals with HOP-62.
In assay [3] the test system is HOP-92.
Assay [4] relates to IGROV-1.
The subject of assay [5] is KM12.
The subject of assay [6] is MCF7.
In assay [7] the test system is MDA-MB-435.
Assay [8] deals with MOLT-4.
Assay [9] relates to Malme-3M.
The subject of assay [10] is PC-3.
Assay [11] concerns RXF 393.
Assay [12] deals with SF-295.
Assay [13] concerns SK-MEL-2.
For assay [14], the system named is SK-MEL-5.
In assay [15] the test system is SK-OV-3.
Assay [16] concerns SNB-19.
For assay [17], the system named is SNB-75.
For assay [18], the system named is SW-620.
Assay [19] deals with U-251.
Assay [20] has as its system UACC-257.

For `CCOP(=O)(OCC)/C(C#N)=C/c1cn(C)cn1`, the GI50 in assay [1], in [2], in assay [3], in assay [4], in [5] and in assay [6] was > 100 µM (inactive) throughout. For the same molecule, the GI50 was > 100 µM (inactive) in assay [7]; > 10 µM (inactive) in assay [8]; > 100 µM (inactive) in assay [9]; > 100 µM (inactive) in assay [10]; > 100 µM (inactive) in [11]; > 100 µM (inactive) in assay [12]. Further, the GI50 in [13] was > 100 µM (inactive); in [14], > 10 µM (inactive); in assay [15], > 100 µM (inactive); in assay [16], > 100 µM (inactive); in [17], > 100 µM (inactive); in assay [18], > 100 µM (inactive). Besides, the GI50 in [19] and in assay [20] was > 100 µM (inactive) throughout.

As to `O=C(NC(Cc1ccc(Br)cc1)C(=O)O)c1ccc(I)cc1` (configuration not stated), the GI50 in assay [1] was > 100 µM (inactive); in assay [2], > 100 µM (inactive); in assay [3], 65.3 µM (inactive); in [4] it was > 100 µM (inactive); in assay [5] it was > 100 µM (inactive); in assay [6], > 100 µM (inactive). For the same molecule, the GI50 is > 69.5 µM (inactive) in assay [8]; 83.4 µM (inactive) in assay [9]; > 100 µM (inactive) in assay [11]; > 100 µM (inactive) in assay [12]; > 100 µM (inactive) in [13]; > 100 µM (inactive) in assay [14]. The GI50 in [15] is > 100 µM (inactive); in assay [16], > 81.3 µM (inactive); in assay [17], > 95.7 µM (inactive); in [18] it was > 100 µM (inactive); in assay [19] it was > 95.3 µM (inactive); in assay [20], > 100 µM (inactive).

Consider `C/C(=N\N)C(CN1CCOCC1)C(c1ccccc1)c1c(O)c2ccccc2oc1=O` (configuration not stated), for which the GI50 in [1] is > 44.8 µM (inactive); in assay [2], > 91 µM (inactive); in assay [3], 26.3 µM (inactive); in assay [4] it was > 100 µM (inactive); in [5], > 81.1 µM (inactive); in [6] it was 56 µM (inactive). Besides, the GI50 was 53.7 µM (inactive) in assay [7]; 40.5 µM (inactive) in [8]; > 64.7 µM (inactive) in [9]; > 100 µM (inactive) in [10]; 3.38 µM (inactive) in assay [11]; > 100 µM (inactive) in assay [12]. In addition, the GI50 in assay [13] was > 100 µM (inactive); in [14], > 64.9 µM (inactive); in assay [15], > 100 µM (inactive); in assay [16], > 100 µM (inactive); in [17] it was 42.9 µM (inactive); in assay [18] it was > 100 µM (inactive). Moreover, the GI50 in assay [19] is > 76.9 µM (inactive); in [20] it was > 100 µM (inactive).

Take `Cc1[nH]c(=O)nc(S)c1C(=O)Nc1cccc2cc3ccccc3cc12`: the GI50 in [1], in [2], in [3], in [4], in assay [5] and in assay [6] was > 100 µM (inactive) each time. Moreover, the GI50 in assay [7], in assay [8], in [9], in assay [10], in [11] and in [12] was > 100 µM (inactive) each time. In addition, the GI50 in assay [13], in assay [14], in [15], in [16], in assay [17] and in assay [18] was > 100 µM (inactive) throughout. The GI50 in assay [19] was > 100 µM (inactive).

With `COc1ccc(N2C(=O)C3c4[nH]c5cccc(C)c5c4C4CCC(C(C)(C)C)CC4C3C2=O)cc1` (configuration not stated), the GI50 in [1], in [2], in [4], in assay [5], in assay [6] and in assay [7] was > 10 µM (inactive) throughout. Moreover, the GI50 in [8], in [9], in [10], in assay [11], in [12] and in assay [13] was > 10 µM (inactive) each time. In addition, the GI50 in assay [14] was > 10 µM (inactive); in [15] it was > 10 µM (inactive); in [16] it was > 10 µM (inactive); in assay [17], 5.15 µM (inactive); in [18], > 10 µM (inactive); in [19], 9.91 µM (inactive).

Turning to `COc1cc(C2S/C(=C/c3ccccc3)C(=O)N2c2ccc(NC(C)=O)cc2)cc(OC)c1OC` (configuration not stated), the GI50 in assay [1] was 15.2 µM (inactive); in [2], 30.4 µM (inactive); in [3], 20.2 µM (inactive); in assay [5] it was 14.1 µM (inactive); in assay [6], 23.9 µM (inactive); in [7], 18.2 µM (inactive). The GI50 in assay [8] was 4.61 µM (inactive); in assay [9] it was 22 µM (inactive); in assay [10], 11.8 µM (inactive); in [11], 17.5 µM (inactive); in [12], 36.6 µM (inactive); in assay [13], 0.71 µM (active). In addition, the GI50 is 13.1 µM (inactive) in assay [14]; 35.2 µM (inactive) in [15]; 38.1 µM (inactive) in assay [16]; 3.3 µM (inactive) in assay [17]; 15.6 µM (inactive) in [19]; 37.2 µM (inactive) in [20].

With `O=C(CSCC(=O)N/N=C/c1cccc(C(F)(F)F)c1)N/N=C/c1cccc(C(F)(F)F)c1`, the GI50 in assay [2], in assay [3], in assay [4], in assay [6], in assay [7] and in assay [9] was > 100 µM (inactive) each time. Further, the GI50 in assay [10], in assay [11], in assay [12], in [13], in assay [14] and in assay [15] was > 100 µM (inactive) throughout. Besides, the GI50 in assay [16], in assay [17] and in assay [20] was > 100 µM (inactive) each time.

Regarding `COc1ccc2cc1Oc1ccc(cc1)CC1c3c(cc(OC)c4c3Oc3cc5c(cc3O4)CCNC5C2)CCN1C` (configuration not stated), the GI50 in [1] is 1.72 µM (inactive); in [2] it was 2.2 µM (inactive); in assay [3] it was 2.45 µM (inactive); in assay [4] it was 1.87 µM (inactive); in assay [5], 1.85 µM (inactive); in assay [6], 1.85 µM (inactive). Besides, the GI50 in assay [7] is 1.8 µM (inactive); in assay [8], 1.46 µM (inactive); in assay [9], 2.09 µM (inactive); in [10], 1.88 µM (inactive); in [12], 1.91 µM (inactive); in assay [13], 1.84 µM (inactive). Also, the GI50 in [14] was 2.06 µM (inactive); in assay [15], 4.67 µM (inactive); in [16] it was 2 µM (inactive); in assay [18], 1.77 µM (inactive); in assay [20], 1.67 µM (inactive).

In the case of `O=S(=O)(O)c1cc(S(=O)(=O)O)c2cc(/N=N/c3ccc(/N=N/c4ccc(/C=C/c5ccc(/N=[N+](/[O-])c6ccc(/C=C/c7ccc(/N=N/c8ccc(/N=N/c9ccc%10cc(S(=O)(=O)O)cc(S(=O)(=O)O)c%10c9)cc8)cc7S(=O)(=O)O)c(S(=O)(=O)O)c6)cc5S(=O)(=O)O)c(S(=O)(=O)O)c4)cc3)ccc2c1`, the GI50 in assay [1] was 50.7 µM (inactive); in assay [2] it was > 100 µM (inactive); in [3], > 58.5 µM (inactive); in assay [4] it was > 100 µM (inactive); in [5], 26.7 µM (inactive); in assay [6], > 100 µM (inactive). Moreover, the GI50 in [8] is > 79.3 µM (inactive); in [9], > 62.8 µM (inactive); in [11] it was > 50.9 µM (inactive); in assay [12], > 33 µM (inactive); in assay [13], 83.9 µM (inactive); in [14], > 66.7 µM (inactive). Also, the GI50 in assay [15] is > 22.3 µM (inactive); in assay [16] it was 25.9 µM (inactive); in assay [17] it was 35.8 µM (inactive); in [18], > 10 µM (inactive); in [19], > 55.8 µM (inactive); in [20] it was > 60.3 µM (inactive).

Consider `O=C1OC(C(O)CO)C(O)=C1O` (configuration not stated), for which the GI50 in [1], in [2], in assay [3], in assay [4], in assay [5] and in [6] was > 100 µM (inactive) throughout. For the same molecule, the GI50 in assay [7], in assay [8], in [9], in assay [10], in assay [12] and in [13] was > 100 µM (inactive) throughout. Also, the GI50 in assay [14] was > 100 µM (inactive); in assay [16] it was > 100 µM (inactive); in assay [17], 99.8 µM (inactive); in assay [18] it was > 100 µM (inactive); in assay [19], > 100 µM (inactive); in [20], > 100 µM (inactive).

As to `CC1(CO)COC(C)(C)OC1`, the GI50 in assay [1], in [3], in assay [5], in assay [6], in [7] and in assay [8] was > 100 µM (inactive) in each case. In addition, the GI50 in assay [10], in assay [11], in [12], in [14], in assay [15] and in [16] was > 100 µM (inactive) throughout. For the same molecule, the GI50 in assay [17], in assay [18], in assay [19] and in assay [20] was > 100 µM (inactive) throughout.
